pIC50: −log10 of the molar value.

The values that follow come from patent US20230212170A1, “INHIBITORS OF KRAS G12C PROTEIN AND USES THEREOF” (SHANGHAI ANTENGENE CORPORATION LIMITED, priority 2020, published 2023).

Sequence of KRAS G12C (P01116 1-169 isoform P01116-2 G12C): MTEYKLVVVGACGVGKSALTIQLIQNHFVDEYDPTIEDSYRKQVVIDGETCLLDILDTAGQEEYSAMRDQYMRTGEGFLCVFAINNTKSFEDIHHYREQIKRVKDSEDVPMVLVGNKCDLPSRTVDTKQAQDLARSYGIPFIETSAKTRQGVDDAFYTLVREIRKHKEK

The experiment addresses KRAS G12C (Homo sapiens, UniProt P01116, G12C). The experiment is described as follows: KRAS G12C nucleotide exchange assay (SOS1-mediated, mant-GDP fluorescence). Format: biochemical. On the set-up: KRas(1-169) G12C protein. As to conditions: 15 min pre-incubation. The method, then: Assay 1: KRAS G12C Nucleotide Exchange Assay
1×Loading buffer: 20 mM HEPES, pH 7.5, 50 mM NaCl, 0.5 mM MgCl2, 1 mM DTT, 5 mM EDTA
1×Equilibration buffer: 20 mM HEPES, pH 7.5, 150 mM NaCl, 1 mM MgCl2, 1 mM DTT
1×Assay buffer: 20 mM HEPES, pH 7.5, 150 mM NaCl, 1 mM MgCl2, 0.01% Tween-20, 1 mM DTT
2. Load Mant GDP to KRAS G12C:
a. A mixed solution of 100 µL mant GDP and KRAS G12C was prepared with 1×loading buffer: 60 um KRAS G12C, 600 um […], incubated at room temperature for 60 minutes, and the reaction was carried out in dark conditions.
b. Add 1 uL 1 m MgCl2 (final concentration 10 mm) to stop the reaction, mix the solution upside down in the centrifuge tube, centrifugate for 3-5 seconds, and incubate at room temperature for 30 minutes.
c. At the same time of incubation for 30 minutes, balance nap-5 column with 10 ml ix equipment buffer until no liquid drops.
d. Drop the mixed solution of 100 uL mant GDP and KRAS G12C into the center of nap-5 column. After the sample completely enters nap-5 column, add 400 µL 1× equipment buffer until no liquid drops.
e. Add 500 ul 1× equipment buffer for elution and collect eluant.
f. Determination of KRAS G12C mant GDP with Bradford protein quantitative Kit.
3. Nucleotide Exchange Experiment:
a. Transfer 50 NL DMSO/compound to 384 well plate with echo550.
b. 10 uL enzyme mix was added into 384 pore plate and incubated with DMSO/compound for 15 min.
c. Initial reaction with 10 µL Sos1/GTP mix.
d. Immediately after reaction, read ex360/em440 fluorescence value in kinetic mode with Nivo.
a. Use Graphpad software to process data and draw pictures.
b. K value is obtained in Graphpad software by fitting One phase experimental deck model.
c. Z′=1-3*(SdKmax+SdKmin)/(AveKmax−AveKmin)
d. In % is calculated by the following formula:
Inh%=(Kmax−Ksample)/(Kmax−Kmin)*100
Usually pIC50 stands for −log10 of the IC50, conventionally taken in molar units. A higher pIC50 goes with a low IC50. In turn, `C=CC(=O)N1CCN(c2nc(OC[C@@H]3CCCN3C)nc3c(=O)n(-c4cccc5cccc(C6CC6)c45)c(C)nc23)C[C@@H]1CC#N` [Compound 10, 2-((S)-1-acryloyl-4-(7-(8-cyclopropylnaphthalen-1-yl)-6-methyl-2-(((S)-1-methylpyrrolidin-2-yl)methoxy)-8-oxo-7,8-dihydropyrimido [5,4-d]pyrimidin-4-yl)piperazin-2-yl)acetonitrile] showed a pIC50 of 6.08. With `C=CC(=O)N1CCN(c2nc(OC[C@@H]3CCCN3C)nc3c(=O)n(-c4cccc5ccccc45)c(C)nc23)CC1` [Example 1, (S)-8-(4-acryloylpiperazin-1-yl)-2-methyl-6-((1-methylpyrrolidin-2-yl)methoxy)-3-(naphthalen-1-yl)pyrimido[5,4-d]pyrimidin-4(3H)-one] the figure was 4.45; with `C=CC(=O)N1CCN(c2nc(OC[C@@H]3CCCN3C)nc3c(=O)n(-c4cccc5cccc(C(=C)C)c45)c(C)nc23)C[C@@H]1CC#N` [Compound 11, 2-((S)-1-acryloyl-4-(6-methyl-2-(((S)-1-methylpyrrolidin-2-yl)methoxy)-8-oxo-7-(8-(prop-1-en-2-yl)naphthalen-1-yl)-7,8-dihydropyrimido[5,4-d]pyrimidin-4-yl)piperazin-2-yl)acetonitrile], 5.53. The same measure for `C=CC(=O)N1CCN(c2nc(OC[C@@H]3CCCN3C)nc3c(=O)n(-c4cccc5ccccc45)c(-c4ccccc4)nc23)C[C@@H]1CC#N` [Compound 17, 2-((S)-1-acryloyl-4-(2-(((S)-1-methylpyrrolidin-2-yl)methoxy)-7-(naphthalen-1-yl)-8-oxo-6-phenyl-7,8-dihydropyrimido[5,4-d]pyrimidin-4-yl)piperazin-2-yl)acetonitrile]: 6.32. With `C=CC(=O)N1CCN(c2nc(OC[C@@H]3CCCN3C)nc3c(=O)n(-c4cccc5cccc(Cl)c45)c(C)nc23)CC1` [Compound 3, (S)-8-(4-acryloylpiperazin-1-yl)-3-(8-chloronaphthalen-1-yl)-2-methyl-6-((1-methylpyrrolidin-2-yl)methoxy)pyrimido[5,4-d]pyrimidin-4(3H)-one] the figure was 5.08; with `C=CC(=O)N1CCN(c2nc(OC[C@@H]3CCCN3C)nc3c(=O)n(-c4cc(OC)cc5ccccc45)c(C)nc23)C[C@@H]1CC#N` [Compound 12, 2-((S)-1-acryloyl-4-(7-(3-methoxynaphthalen-1-yl)-6-methyl-2-(((S)-1-methylpyrrolidin-2-yl)methoxy)-8-oxo-7,8-dihydropyrimido[5,4-d]pyrimidin-4-yl)piperazin-2-yl)acetonitrile], 6.05. For the compound `C=CC(=O)N1CCN(c2nc(OC[C@@H]3CCCN3C)nc3c(=O)n(-c4cccc5cccc(C)c45)c(C)nc23)CC1` [Compound 6, (S)-8-(4-acryloylpiperazin-1-yl)-2-methyl-3-(8-methylnaphthalen-1-yl)-6-((1-methylpyrrolidin-2-yl)methoxy)pyrimido[5,4-d]pyrimidin-4(3H)-one], the negative-log IC50 (pIC50) is 5.75. On to `C=CC(=O)N1CCN(c2nc(OC[C@@H]3CCCN3C)nc3c(=O)n(-c4c(C)c(C)cc5[nH]ncc45)c(C)nc23)C[C@@H]1CC#N` [Compound 16, 2-((S)-1-acryloyl-4-(7-(5,6-dimethyl-1H-indazol-4-yl)-6-methyl-2-(((S)-1-methylpyrrolidin-2-yl)methoxy)-8-oxo-7,8-dihydropyrimido[5,4-d]pyrimidin-4-yl)piperazin-2-yl)acetonitrile], for which the pIC50 is 6.09. With `C=CC(=O)N1CCN(c2nc(OC[C@@H]3CCCN3C)nc3c(=O)n(-c4cccc5ccccc45)c(CC)nc23)C[C@@H]1CC#N` [Compound 14, 2-((S)-1-acryloyl-4-(6-ethyl-2-(((S)-1-methylpyrrolidin-2-yl)methoxy)-7-(naphthalen-1-yl)-8-oxo-7,8-dihydropyrimido[5,4-d]pyrimidin-4-yl)piperazin-2-yl)acetonitrile] the figure was 6.07.

Take `C=CC(=O)N1CCN(c2nc(OC[C@@H]3CCCN3C)nc3c(=O)n(-c4c(C)ccc5[nH]ncc45)c(C)nc23)CC1` [Compound 22, (S)-8-(4-acryloylpiperazin-1-yl)-2-methyl-3-(5-methyl-1H-indazol-4-yl)-6-((1-methylpyrrolidin-2-yl)methoxy)pyrimido[5,4-d]pyrimidin-4(3H)-one]: the pIC50 was 4.64.

Turning to `C=CC(=O)N1CCN(c2nc(OC[C@@H]3CCCN3C)nc3c(=O)n(-c4cccc5cccc(Cl)c45)c(CC)nc23)C[C@@H]1CC#N` [Compound 13, 2-((S)-1-acryloyl-4-(7-(8-chloronaphthalen-1-yl)-6-ethyl-2-(((S)-1-methylpyrrolidin-2-yl)methoxy)-8-oxo-7,8-dihydropyrimido[5,4-d]pyrimidin-4-yl)piperazin-2-yl)acetonitrile], the pIC50 is 6.41. With `C=CC(=O)N1CCN(c2nc(OC[C@@H]3CCCN3C)nc3c(=O)n(-c4c(C)ccc5[nH]ncc45)c(C)nc23)C[C@@H]1CC#N` [Compound 23, 2-((S)-1-acryloyl-4-(6-methyl-7-(5-methyl-1H-indazol-4-yl)-2-(((S)-1-methylpyrrolidin-2-yl)methoxy)-8-oxo-7,8-dihydropyrimido[5,4-d]pyrimidin-4-yl)piperazin-2-yl)acetonitrile] the figure was 6.15. With `C=CC(=O)N1CCN(c2nc(OC[C@@H]3CCCN3C)nc3c2CCCC(c2c(C)ccc4[nH]ncc24)C3)CC1` (stereo partly drawn) [Compound 20, 1-(4-(8-(5-methyl-1H-indazol-4-yl)-2-(((S)-1-methylpyrrolidin-2-yl)methoxy)-6,7,8,9-tetrahydro-5H-cyclohepta[d]pyrimidin-4-yl)piperazin-1-yl)prop-2-en-1-one] the figure was 5.54; with `C=CC(=O)N1CCN(c2nc(OC[C@@H]3CCCN3C)nc3c(=O)n(-c4cccc5ncccc45)c(C)nc23)C[C@@H]1CC#N` [Compound 15, 2-((S)-1-acryloyl-4-(6-methyl-2-(((S)-1-methylpyrrolidin-2-yl)methoxy)-8-oxo-7-(quinolin-5-yl)-7,8-dihydropyrimido[5,4-d]pyrimidin-4-yl)piperazin-2-yl)acetonitrile], 5.53; with `C=CC(=O)N1CCN(c2nc(OC[C@@H]3CCCN3C)nc3c(=O)n(-c4cccc5cccc(CC)c45)c(C)nc23)C[C@@H]1CC#N` [Compound 9, 2-((S)-1-acryloyl-4-(7-(8-ethylnaphthalen-1-yl)-6-methyl-2-(((S)-1-methylpyrrolidin-2-yl)methoxy)-8-oxo-7,8-dihydropyrimido[5,4-d]pyrimidin-4-yl)piperazin-2-yl)acetonitrile], 5.97.

`C=CC(=O)N1CCN(c2nc(OC[C@@H]3CCCN3C)nc3c(=O)n(-c4cccc5cccc(C)c45)c(C)nc23)C[C@@H]1CC#N` [Compound 7, 2-((S)-1-acryloyl-4-(6-methyl-7-(8-methylnaphthalen-1-yl)-2-(((S)-1-methylpyrrolidin-2-yl)methoxy)-8-oxo-7,8-dihydropyrimido[5,4-d]pyrimidin-4-yl)piperazin-2-yl)acetonitrile] showed a pIC50 of 6.41. With `C=CC(=O)N(C)C1CCN(c2nc(OC[C@@H]3CCCN3C)nc3c2CCN(c2cccc4cccc(Cl)c24)C3)C1` (stereo partly drawn) [Compound 21, N-(1-(7-(8-chloronaphthalen-1-yl)-2-(((S)-1-methylpyrrolidin-2-yl)methoxy)-5,6,7,8-tetrahydropyrido[3,4-d]pyrimidin-4-yl)pyrrolidin-3-yl)-N-methylacrylamide], the pIC50 is 4.72. The same measure for `C=CC(=O)N1C[C@H](C)N(c2nc(OC[C@@H]3CCCN3C)nc3c(=O)n(-c4cccc5cccc(Cl)c45)c(C)nc23)C[C@@H]1C` [Compound 8, 8-((2S,5S)-4-acryloyl-2,5-dimethylpiperazin-1-yl)-3-(8-chloronaphthalen-1-yl)-2-methyl-6-(((S)-1-methylpyrrolidin-2-yl)methoxy)pyrimido[5,4-d]pyrimidin-4(3H)-one]: 4.22; for `C=CC(=O)N1CCN(c2nc(OC[C@@H]3CCCN3C)nc3c(=O)n(-c4cccc5ccccc45)cnc23)CC1` [Compound 5, (S)-8-(4-acryloylpiperazin-1-yl)-6-((1-methylpyrrolidin-2-yl)methoxy)-3-(naphthalen-1-yl)pyrimido[5,4-d]pyrimidin-4(3H)-one]: 4.28; for `C=CC(=O)N1CCN(c2nc(OC[C@@H]3CCCN3C)nc3c(=O)n(-c4cccc5ccccc45)c(-c4ccccc4)nc23)CC1` [Compound 18, (S)-8-(4-acryloylpiperazin-1-yl)-6-((1-methylpyrrolidin-2-yl)methoxy)-3-(naphthalen-1-yl)-2-phenylpyrimido[5,4-d]pyrimidin-4(3H)-one]: 5.00.
